Data as given in patent US10961238B2, “Modulators of hedgehog (Hh) signaling pathway” (E-THERAPEUTICS PLC, priority 2016, dated 2021).

system: C3H10T1/2 cells; experiment: C3H assay: differentiation of C3H10T1/2 cells by mSHH, measurement of alkaline phosphatase; type: cell-based, mouse; conditions: Mus musculus, C3H 10T1/2; C3H10T1/2 cells stimulated with mSHH for 72 hours; alkaline phosphatase activity; read-out: IC50 Ranges

SMILES | IC50 [nM]
Cc1nn(C)c(C)c1CNC(=O)N1CC(S(=O)(=O)N2CCC(c3c[nH]c4ncccc34)CC2)C1 [Compound 95, 3-[4-(1H-pyrrolo[2,3-b]pyridin-3-yl)piperidin-1-yl]sulfonyl-N-[(1,3,5-trimethylpyrazol-4-yl)methyl]azetidine-1-carboxamide] | 100 to 1000
O=C(Nc1cccnc1)N1CC(S(=O)(=O)N2CCC(c3c[nH]c4ncccc34)CC2)C1 [Compound 96, N-pyridin-3-yl-3-[4-(1H-pyrrolo[2,3-b]pyridin-3-yl)piperidin-1-yl]sulfonylaze-tidine-1-carboxamide] | 10 to 100
CC(C)NC(=O)N1CC(S(=O)(=O)N2CCC(c3c[nH]c4ncccc34)CC2)C1 [Compound 98, N-propan-2-yl-3-[4-(1H-pyrrolo[2,3-b]pyridin-3-yl)piperidin-1-yl]sulfonylaze-tidine-1-carboxamide] | 100 to 1000
O=C(NCc1ccco1)N1CC(S(=O)(=O)N2CCC(c3c[nH]c4ncccc34)CC2)C1 [Compound 99, N-(furan-2-ylmethyl)-3-[4-(1H-pyrrolo[2,3-b]pyridin-3-yl)piperidin-1-yl]sulfonylaze-tidine-1-carboxamide] | 100 to 1000
CC(C)(C)OC(=O)N1CC(S(=O)(=O)N2CCC(c3cnc4ccccn34)CC2)C1 [Compound 100, tert-butyl 3-(4-imidazo[1,2-a]pyridin-3-ylpiperidin-1-yl)sulfonylaze-tidine-1-carboxylate] | 100 to 1000
CC(C)(C)OC(=O)N1CC(S(=O)(=O)N2CCC(c3cnc4n3CCCC4)CC2)C1 [Compound 101, tert-butyl 3-[4-(5,6,7,8-tetrahydroimidazo [1,2-a]pyridin-3-yl)piperidin-1-yl]sulfonylaze-tidine-1-carboxylate] | 1000 to 10000
Cn1cncc1C1CCN(S(=O)(=O)C2CN(C(=O)OC(C)(C)C)C2)CC1 [Compound 102, tert-butyl 3-[4-(3-methylimidazol-4-yl)piperidin-1-yl]sulfonylaze-tidine-1-carboxylate] | 1000 to 10000
CCOC(=O)N1CCC(S(=O)(=O)N2CCC(c3ccncc3)CC2)CC1 [Compound 103, ethyl 4-(4-pyridin-4-ylpiperidin-1-yl)sulfonylpiper-idine-1-carboxylate] | 1000 to 10000
O=C(NC1CCC1)N1CCC(S(=O)(=O)N2CCC(c3ccncc3)CC2)CC1 [Compound 104, N-cyclobutyl-4-(4-pyridin-4-ylpiperidin-1-yl)sulfonylpiper-idine-1-carboxamide] | 1000 to 10000
CC(C)OC(=O)N1CCC(S(=O)(=O)N2CCC(c3ccncc3)CC2)CC1 [Compound 105, propan-2-yl 4-(4-pyridin-4-ylpiperidin-1-yl)sulfonylpiper-idine-1-carboxylate] | 1000 to 10000
COC(=O)N1CCC(S(=O)(=O)N2CCC(c3ccncc3)CC2)CC1 [Compound 106, methyl 4-(4-pyridin-4-ylpiperidin-1-yl)sulfonylpiper-idine-1-carboxylate] | 1000 to 10000
CC(C)(C)NC(=O)N1CC(S(=O)(=O)N2CCC(c3c[nH]c4ncccc34)CC2)C1 [Compound 108, N-tert-butyl-3-[4-(1H-pyrrolo[2,3-b]pyridin-3-yl)piperidin-1-yl]sulfonylaze-tidine-1-carboxamide] | 10 to 100
O=S(=O)(C1CCN(c2ccccc2)CC1)N1CCC(c2ccncc2)CC1 [Compound 113, 4-[1-[(1-Phenyl-4-piperidyl)sulfonyl]-4-piperidyl]pyridine] | 1000 to 10000
O=S(=O)(C1CN(c2ccccn2)C1)N1CCC(c2c[nH]c3ncccc23)CC1 [Compound 118, 3-[1-[1-(2-Pyridyl)azetidin-3-yl]sulfonyl-4-piperidyl]-1H-pyrrolo[2,3-b]pyridine] | 10 to 100

Results, then the compound that gave them:

IC50 [nM] | SMILES
10 to 100 | CC(C)(C)OC(=O)N1CC(S(=O)(=O)N2CCC(c3c[nH]c4ncccc34)CC2)C1 [Compound 110, tert-butyl 3-[4-(1H-pyrrolo[2,3-b]pyridin-3-yl)piperidin-1-yl]sulfonylaze-tidine-1-carboxylate]
100 to 1000 | CC(C)(C)NC(=O)N1CCC(S(=O)(=O)N2CCC(c3ccncc3)CC2)CC1 [Compound 111, N-tert-butyl-4-(4-pyridin-4-ylpiperidin-1-yl)sulfonylpiper-idine-1-carboxamide]
1000 to 10000 | O=C(Oc1ccccc1)N1CCC(S(=O)(=O)N2CCC(c3ccncc3)CC2)CC1 [Compound 114, phenyl 4-(4-pyridin-4-ylpiperidin-1-yl)sulfonylpiper-idine-1-carboxylate]
100 to 1000 | CC(C)(C)OC(=O)N1CCC(S(=O)(=O)N2CCC(c3c[nH]c4ncc(C(F)(F)F)cc34)CC2)CC1 [Compound 116]
1000 to 10000 | Cn1cc(-c2cnc3[nH]cc(C4CCN(S(=O)(=O)C5CCN(C(=O)OC(C)(C)C)CC5)CC4)c3c2)cn1 [Compound 117, tert-butyl 4-[4-[5-(1-methylpyrazol-4-yl)-1H-pyrrolo [2,3-b]pyridin-3-yl]piperidin-1-yl]sulfonylpiper-idine-1-carboxylate]
10 to 100 | CC(C)N(C)C(=O)N1CC(S(=O)(=O)N2CCC(c3c[nH]c4ncccc34)CC2)C1 [Compound 119, N-methyl-N-propan-2-yl-3-[4-(1H-pyrrolo [2,3-b]pyridin-3-yl)piperidin-1-yl]sulfonylaze-tidine-1-carboxamide]
1000 to 10000 | CC(C)(C)OC(=O)N1CC(S(=O)(=O)N2CCC(c3c[nH]c4ncc(C(F)(F)F)cc34)CC2)C1 [Compound 121, tert-butyl 3-[4-[5-(trifluoromethyl)-1H-pyrrolo[2,3-b]pyridin-3-yl]piperidin-1-yl]sulfonylaze-tidine-1-carboxylate]
100 to 1000 | COc1cnc2[nH]cc(C3CCN(S(=O)(=O)C4CN(C(=O)OC(C)(C)C)C4)CC3)c2c1 [Compound 123, tert-butyl 3-[4-(5-methoxy-1H-pyrrolo[2,3-b]pyridin-3-yl)piperidin-1-yl]sulfonylaze-tidine-1-carboxylate]
10 to 100 | CC(C)(C)OC(=O)N1CC(S(=O)(=O)N2CCC(c3c[nH]c4ccccc34)CC2)C1 [Compound 125, tert-butyl 3-[4-(1H-indol-3-yl)piperidin-1-yl]sulfonylaze-tidine-1-carboxylate]
100 to 1000 | COC(=O)N1CC(S(=O)(=O)N2CCC(c3coc4cccnc34)CC2)C1 [Compound 126, methyl 3-(4-furo [3,2-b]pyridin-3-ylpiperidin-1-yl)sulfonylaze-tidine-1-carboxylate]
100 to 1000 | CC(C)(C)OC(=O)N1CC(S(=O)(=O)N2CCC(C3COc4cccnc43)CC2)C1 (stereo not drawn) [Compound 127, tert-butyl 3-[4-(2,3-dihydrofuro[3,2-b]pyridin-3-yl)piperidin-1-yl]sulfonylaze-tidine-1-carboxylate]
10 to 100 | CC(C)(C)OC(=O)N1CC(S(=O)(=O)N2CCC(c3c[nH]c4nccnc34)CC2)C1 [Compound 128, tert-Butyl 3-[[4-(5H-pyrrolo[2,3-b]pyrazin-7-yl)-1-piperidyl]sulfonyl] azetidine-1-carboxylate]
1000 to 10000 | Cc1ccc(S(=O)(=O)n2cc(C3CCN(S(=O)(=O)C4CN(C(=O)OC(C)(C)C)C4)CC3)c3nccnc32)cc1 [Compound 129, tert-butyl 3-[4-[5-(4-methylphenyl)-sulfonylpyrrolo[2,3-b]pyrazin-7-yl]piperidin-1-yl]sulfonylaze-tidine-1-carboxylate]
